Patent US20080045486A1, “OCULAR ADMINISTRATION OF TESTOSTERONE” (priority 2006, published 2008)

Columns and labels:
[1] = 16-week dose-ranging study of testosterone ophthalmic solutions in patients with keratoconjunctivitis sicca, serum pharmacokinetics; assay type: in vivo, human; details: for increase of serum testosterone concentration over the endogenous baseline / concentration at 10 min: 10 minutes after dosing; for increase of serum testosterone concentration over the endogenous baseline: male patients; for concentration at 10 min: human, serum, other: ophthalmic solution, eye drop, one drop twice daily, female patients, baseline approximately 20 ng/dL
Method: Another clinical study entitled “A Multi-Center, Parallel, Randomized, Double-Masked, Vehicle-Controlled, Dose-Ranging Study to Evaluate the Safety, Tolerability and Efficacy of Testosterone 0.01%, 0.1%, and 0.3% Ophthalmic Solutions Administered Twice Daily for 16 weeks in Patients with Keratoconjunctivitis Sicca (KCS)” was conducted to determine the effectiveness of the ocular administration of testosterone in both women and men. This study was a randomized, multi-center, double-masked, parallel-group study of three treatment groups and one vehicle group. Patients were randomized to either 0.01%, 0.1%, 0.3% testosterone or vehicle of 0.3% testosterone ophthalmic solution. In the treatment phase, patients were instructed to instill one drop of the randomly assigned masked treatment twice daily (in the morning upon waking and before bedtime) for 16 weeks. Data from 135 patients (100 females and 35 males) were included in the pharmacokinetic data analysis. A single blood sample (20 mL) was taken from each patient pre-dose and at 10 minutes post dose on day 0, weeks 1, 4, 8, 12, and 16 for the determination of serum testosterone, dihydrotestosterone, 3-alpha-androstanediol glucuronide and sex hormone binding globulin concentrations. Serum concentrations of testosterone and dihydrotestosterone were determined by a validated gas chromatography-mass spectrometry (GC-MS) method with a quantitation range for DHT of 0.1 to 100 ng/dL and for testosterone of 1.0 to 1000 ng/dL. Serum concentrations of 3-alpha-androstanediol-glucuronide were quantitated by a validated radioimmunoassay method with a range of quantitation from 0.800 to 100 ng/mL, and serum concentrations of sex hormone binding globulin were determined using a validated two-site immunoradiometric assay (IRMA) method with a range of quantitation of 5 to 320 nmol/L for a 1:100 diluted sample.

[2] = Safety and pharmacokinetics study of testosterone ophthalmic solutions for up to 14 days in postmenopausal women; assay type: in vivo, human; details: for equivalent absorbed daily dose: assuming production rate 0.125 mg/day; for median Cmax of serum testosterone concentration: each eye twice daily, day 13, healthy postmenopausal women
Method: A clinical study entitled “A Single-Center, Double Masked, Parallel, Dose-Ranging, Vehicle Controlled Study Evaluating the Safety and Pharmacokinetics of Testosterone (0.03%, 0.1%, 0.3%, and 0.6%) Ophthalmic Solutions for up to 14 Days in Postmenopausal Women” was conducted to determine the effectiveness of the ocular administration of testosterone. This study was a randomized, single-center, double-masked, parallel-group study of five treatment groups, with each subject acting as their own baseline control for serum testosterone concentrations. Subjects received testosterone ophthalmic solution 0.03%, 0.1%, 0.3%, 0.6% or vehicle ophthalmic solution in each eye twice daily for 14 days. Each subject had blood withdrawn for the measurement of serum testosterone concentrations. On day 13, blood samples were taken prior to the morning dose (time 0), and at 5, 10, 20, 30, and 45 minutes, 1, 2, 4, 6, 8, and 12 hours post-dose. On day −1, blood samples were taken at the same time as day 13 to evaluate the baseline serum testosterone levels. On days −6, 7, 14, and 27, one blood sample was taken at the same time as day 13 predose draw to evaluate the trough serum testosterone levels (there were no dosing on days −6, −1, and 27). […] Serum testosterone concentrations were assayed using a validated double antibody radioimmunoassay method with a lower limit of quantitation (LLOQ) at 29 pg/mL or 2.9 ng/dL.

Compound: C[C@]12CC[C@H]3[C@@H](CCC4=CC(=O)CC[C@@]43C)[C@@H]1CC[C@@H]2O [testosterone, (17β)-17-Hydroxyandrost-4-en-3-one]
- increase of serum testosterone concentration over the endogenous baseline ([1]; 0.1% solution): 13%
- increase of serum testosterone concentration over the endogenous baseline ([1]; 0.3% solution): 36%
- safety concern from serum pharmacokinetic data ([1]; 4 month dosing period, 0.01%, 0.1% and 0.3% dose levels): did not indicate a safety concern
- concentration at 10 min ([1]; 0.01% solution): 0.35 ng/mL
- concentration at 10 min ([1]; 0.1% solution): 2 ng/mL
- concentration at 10 min ([1]; 0.3% solution): 3.5 ng/mL
- equivalent absorbed daily dose ([2]; 0.03% formulation BID both eyes): 0.024 mg
- average increase of serum testosterone level ([2]; 0.03% formulation, 50 μL BID to both eyes (0.06 mg/day)): 3.8 ng/dL
- median Cmax of serum testosterone concentration ([2]; 0.03% ophthalmic solution): 93.5 ng/dL
- equivalent absorbed daily dose ([2]; 0.1% formulation BID both eyes): 0.094 mg
- average increase of serum testosterone level ([2]; 0.1% formulation, 50 μL BID to both eyes (0.2 mg/day)): 15 ng/dL
- median Cmax of serum testosterone concentration ([2]; 0.1% ophthalmic solution): 193 ng/dL
- equivalent absorbed daily dose ([2]; 0.3% formulation BID both eyes): 0.15 mg
- average increase of serum testosterone level ([2]; 0.3% formulation, 50 μL BID to both eyes (0.6 mg/day)): 24 ng/dL
- median Cmax of serum testosterone concentration ([2]; 0.3% ophthalmic solution): 237 ng/dL
- equivalent absorbed daily dose ([2]; 0.6% formulation BID both eyes): 0.31 mg
- average increase of serum testosterone level ([2]; 0.6% formulation, 50 μL BID to both eyes (1.2 mg/day)): 49 ng/dL
- median Cmax of serum testosterone concentration ([2]; 0.6% ophthalmic solution): 457 ng/dL
- time for serum testosterone concentration to return to the baseline level ([2]; after dosing of testosterone ophthalmic solution): 12 h
- fraction of the peak serum level gone ([2]; in 2 hours after ophthalmical dosing): about 90%
